Data taken from patent publication US8846698B2, “Pyrrolo[2,3-d]pyrimidine tropomysin-related kinase inhibitors” (Pfizer Limited, priority 2011, dated 2014).

The compounds below were run against TRKA (Homo sapiens (Human), UniProt P04629) (assay: Isolated TRK enzyme assay (HTRF KinEASE-TK), TRKA). Details: read-out: Trka enzyme (IC50).
Assay type: biochemical

Chain of TRKA (P04629 441-796): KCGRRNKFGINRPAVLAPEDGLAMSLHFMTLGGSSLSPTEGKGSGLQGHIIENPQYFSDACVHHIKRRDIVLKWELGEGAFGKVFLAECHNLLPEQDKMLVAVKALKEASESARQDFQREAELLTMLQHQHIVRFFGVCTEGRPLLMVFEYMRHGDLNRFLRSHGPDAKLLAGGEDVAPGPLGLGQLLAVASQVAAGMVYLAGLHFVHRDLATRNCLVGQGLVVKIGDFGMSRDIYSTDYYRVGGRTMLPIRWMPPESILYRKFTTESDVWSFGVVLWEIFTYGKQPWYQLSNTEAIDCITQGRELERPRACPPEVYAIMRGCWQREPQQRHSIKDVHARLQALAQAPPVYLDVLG

Row | IC50 | Structure (SMILES)
1 | 70.5 nM | CC(CO)(CO)n1cc(C(=O)c2cncc(NC(=O)Cc3ccc(Cl)cc3)c2)c2cncnc21 [Example 235, 2-(4-chlorophenyl)-N-[5-({7-[2-hydroxy-1-(hydroxymethyl)-1-methylethyl]-7H-pyrrolo[2,3-d]pyrimidin-5-yl}carbonyl)pyridin-3-yl]acetamide]
2 | 25.2 nM | CC(CO)(CO)n1cc(C(=O)c2cncc(NC(=O)Cc3ccc(C(F)(F)F)cc3)c2)c2cncnc21 [Example 236, N-[5-({7-[2-hydroxy-1-(hydroxymethyl)-1-methylethyl]-7H-pyrrolo[2,3-d]pyrimidin-5-yl}carbonyl)pyridin-3-yl]-2-[4-(trifluoromethyl)phenyl]acetamide]
3 | 73.9 nM | CC(CO)(CO)n1cc(C(=O)c2cncc(NC(=O)Cc3ccc(Cl)cn3)c2)c2cncnc21 [Example 237, 2-(5-chloropyridin-2-yl)-N-[5-({7-[2-hydroxy-1-(hydroxymethyl)-1-methylethyl]-7H-pyrrolo[2,3-d]pyrimidin-5-yl}carbonyl)pyridin-3-yl]acetamide]
4 | 9.36 nM | CC(CO)(CO)n1cc(C(=O)c2cncc(NC(=O)Cc3cccc(C(F)(F)F)c3)c2)c2cncnc21 [Example 238, N-[5-({7-[2-hydroxy-1-(hydroxymethyl)-1-methylethyl]-7H-pyrrolo[2,3-d]pyrimidin-5-yl}carbonyl)pyridin-3-yl]-2-[3-(trifluoromethyl)phenyl]acetamide]
5 | 22.6 nM | CC(CO)(CO)n1cc(C(=O)c2cncc(NC(=O)Cn3ccc(C(F)(F)F)n3)c2)c2cncnc21 [Example 239, N-[5-({7-[2-hydroxy-1-(hydroxymethyl)-1-methylethyl]-7H-pyrrolo[2,3-d]pyrimidin-5-yl}carbonyl)pyridin-3-yl]-2-[3-(trifluoromethyl)-1H-pyrazol-1-yl]acetamide]
6 | 19.2 nM | CC(C)n1cc(C(=O)c2cncc(NC(=O)Cn3cc(C(F)(F)F)nn3)c2)c2cnc(N)nc21 [Example 240, N-{5-[(2-amino-7-isopropyl-7H-pyrrolo[2,3-d]pyrimidin-5-yl)carbonyl]pyridin-3-yl}-2-[4-(trifluoromethyl)-1H-1,2,3-triazol-1-yl]acetamide]
7 | 45.3 nM | CC(C)n1cc(C(=O)c2cncc(NC(=O)Cc3ccc(C#N)cc3)c2)c2cnc(N)nc21 [Example 241, N-{5-[(2-amino-7-isopropyl-7H-pyrrolo[2,3-d]pyrimidin-5-yl)carbonyl]pyridin-3-yl}-2-(4-cyanophenyl)acetamide]
8 | 8.71 nM | CC(C)n1cc(C(=O)c2cncc(NC(=O)Cc3ccc(Cl)cn3)c2)c2cnc(N)nc21 [Example 242, N-{5-[(2-amino-7-isopropyl-7H-pyrrolo[2,3-d]pyrimidin-5-yl)carbonyl]pyridin-3-yl}-2-(5-chloropyridin-2-yl)acetamide]
9 | 38.4 nM | CC(C)n1cc(C(=O)c2cncc(NC(=O)Cc3ccc(F)cn3)c2)c2cnc(N)nc21 [Example 243, N-{5-[(2-amino-7-isopropyl-7H-pyrrolo[2,3-d]pyrimidin-5-yl)carbonyl]pyridin-3-yl}-2-(5-fluoropyridin-2-yl)acetamide]
10 | 4.69 nM | CC(C)n1cc(C(=O)c2cncc(NC(=O)Cc3ccc(C(F)(F)F)cc3)c2)c2cnc(N)nc21 [Example 244, N-{5-[(2-amino-7-isopropyl-7H-pyrrolo[2,3-d]pyrimidin-5-yl)carbonyl]pyridin-3-yl}-2-[4-(trifluoromethyl)phenyl]acetamide]
11 | 4.7 nM | CC(C)n1cc(C(=O)c2cncc(NC(=O)Cc3cccc(C(F)(F)F)c3)c2)c2cnc(N)nc21 [Example 245, N-{5-[(2-amino-7-isopropyl-7H-pyrrolo[2,3-d]pyrimidin-5-yl)carbonyl]pyridin-3-yl}-2-[3-(trifluoromethyl)phenyl]acetamide]
12 | 35.6 nM | CC(C)n1cc(C(=O)c2cncc(NC(=O)Cc3ccc4ocnc4c3)c2)c2cnc(N)nc21 [Example 246, N-{5-[(2-amino-7-isopropyl-7H-pyrrolo[2,3-d]pyrimidin-5-yl)carbonyl]pyridin-3-yl}-2-(1,3-benzoxazol-5-yl)acetamide]
13 | 71 nM | CC(C)n1cc(C(=O)c2cncc(NC(=O)Cc3cccc(S(C)(=O)=O)c3)c2)c2cnc(N)nc21 [Example 247, N-{5-[(2-amino-7-isopropyl-7H-pyrrolo[2,3-d]pyrimidin-5-yl)carbonyl]pyridin-3-yl}-2-[3-(methylsulfonyl)phenyl]acetamide]
14 | 23.7 nM | CC(C)c1cn(CC(=O)Nc2cncc(C(=O)c3cn(C(C)C)c4nc(N)ncc34)c2)nn1 [Example 248, N-{5-[(2-amino-7-isopropyl-7H-pyrrolo[2,3-d]pyrimidin-5-yl)carbonyl]pyridin-3-yl}-2-(4-isopropyl-1H-1,2,3-triazol-1-yl)acetamide]
15 | 35.8 nM | CC(C)n1cc(C(=O)c2cncc(NC(=O)Cn3cc(C4CC4)nn3)c2)c2cnc(N)nc21 [Example 249, N-{5-[(2-amino-7-isopropyl-7H-pyrrolo[2,3-d]pyrimidin-5-yl)carbonyl]pyridin-3-yl}-2-(4-cyclopropyl-1H-1,2,3-triazol-1-yl)acetamide]
16 | 3.48 nM | CC(C)n1cc(C(=O)c2cncc(NC(=O)Cc3ccc(Cl)cc3)c2)c2cnc(N)nc21 [Example 250, N-{5-[(2-amino-7-isopropyl-7H-pyrrolo[2,3-d]pyrimidin-5-yl)carbonyl]pyridin-3-yl}-2-(4-chlorophenyl)acetamide]
17 | 33.1 nM | CC(C)n1ncc(CC(=O)Nc2cncc(C(=O)c3cn(C(C)C)c4nc(N)ncc34)c2)c1C(F)(F)F [Example 251, N-{5-[(2-amino-7-isopropyl-7H-pyrrolo[2,3-d]pyrimidin-5-yl)carbonyl]pyridin-3-yl}-2-[1-isopropyl-5-(trifluoromethyl)-1H-pyrazol-4-yl]acetamide]
18 | 5.18 nM | CC(C)n1cc(C(=O)c2cncc(NC(=O)Cn3ccc(C(F)(F)F)n3)c2)c2cnc(N)nc21 [Example 252, N-{5-[(2-amino-7-isopropyl-7H-pyrrolo[2,3-d]pyrimidin-5-yl)carbonyl]pyridin-3-yl}-2-[3-(trifluoromethyl)-1H-pyrazol-1-yl]acetamide]
19 | 3.92 nM | CC(C)n1cc(C(=O)c2cncc(NC(=O)Cn3ccc(C4CC4)n3)c2)c2cnc(N)nc21 [Example 253, N-{5-[(2-amino-7-isopropyl-7H-pyrrolo[2,3-d]pyrimidin-5-yl)carbonyl]pyridin-3-yl}-2-(3-cyclopropyl-1H-pyrazol-1-yl)acetamide]
20 | 52.6 nM | CC(C)n1cc(CC(=O)Nc2cncc(C(=O)c3cn(C(C)C)c4nc(N)ncc34)c2)c(C(F)(F)F)n1 [Example 254, N-{5-[(2-amino-7-isopropyl-7H-pyrrolo[2,3-d]pyrimidin-5-yl)carbonyl]pyridin-3-yl}-2-[1-isopropyl-3-(trifluoromethyl)-1H-pyrazol-4-yl]acetamide]
21 | 42.7 nM | CC(C)n1cc(C(=O)c2cncc(NC(=O)Cc3ccc(C#N)cn3)c2)c2cnc(N)nc21 [Example 255, N-{5-[(2-amino-7-isopropyl-7H-pyrrolo[2,3-d]pyrimidin-5-yl)carbonyl]pyridin-3-yl}-2-(5-cyanopyridin-2-yl)acetamide]
22 | 1.09 nM | CC(C)(CO)n1cc(C(=O)c2cncc(NC(=O)Cc3cccc(C(F)(F)F)c3)c2)c2cnc(N)nc21 [Example 256, N-(5-{[2-amino-7-(2-hydroxy-1,1-dimethylethyl)-7H-pyrrolo[2,3-d]pyrimidin-5-yl]carbonyl}pyridin-3-yl)-2-[3-(trifluoromethyl)phenyl]acetamide]
23 | 12.2 nM | CC(C)(CO)n1cc(C(=O)c2cncc(NC(=O)Cc3ccc4ocnc4c3)c2)c2cnc(N)nc21 [Example 257, N-(5-{[2-amino-7-(2-hydroxy-1,1-dimethylethyl)-7H-pyrrolo[2,3-d]pyrimidin-5-yl]carbonyl}pyridin-3-yl)-2-(1,3-benzoxazol-5-yl)acetamide]
24 | 11.8 nM | CC(C)(CO)n1cc(C(=O)c2cncc(NC(=O)Cc3cccc(S(C)(=O)=O)c3)c2)c2cnc(N)nc21 [Example 258, N-(5-{[2-amino-7-(2-hydroxy-1,1-dimethylethyl)-7H-pyrrolo[2,3-d]pyrimidin-5-yl]carbonyl}pyridin-3-yl)-2-[3-(methylsulfonyl)phenyl]acetamide]
25 | 8.62 nM | CC(C)(CO)n1cc(C(=O)c2cncc(NC(=O)Cc3ccc(C#N)cc3)c2)c2cnc(N)nc21 [Example 259, N-(5-{[2-amino-7-(2-hydroxy-1,1-dimethylethyl)-7H-pyrrolo[2,3-d]pyrimidin-5-yl]carbonyl}pyridin-3-yl)-2-(4-cyanophenyl)acetamide]
26 | 16.8 nM | CC(C)n1ncc(CC(=O)Nc2cncc(C(=O)c3cn(C(C)(C)CO)c4nc(N)ncc34)c2)c1C(F)(F)F [Example 260, N-(5-{[2-amino-7-(2-hydroxy-1,1-dimethylethyl)-7H-pyrrolo[2,3-d]pyrimidin-5-yl]carbonyl}pyridin-3-yl)-2-[1-isopropyl-5-(trifluoromethyl)-1H-pyrazol-4-yl]acetamide]
27 | 128 nM | CC(CO)(CO)n1cc(C(=O)c2cncc(NC(=O)Cc3ccc(C#N)c(C(F)(F)F)c3)c2)c2cncnc21 [Example 261]
28 | 73.6 nM | CC(CO)(CO)n1cc(C(=O)c2cncc(NC(=O)Cc3ccc(F)c(C(F)(F)F)c3)c2)c2cncnc21 [Example 263, N-(5-(7-(1,3-dihydroxy-2-methylpropan-2-yl)-7H-pyrrolo[2,3-d]pyrimidine-5-carbonyl)pyridin-3-yl)-2-(4-fluoro-3-(trifluoromethyl)phenyl)acetamide]
29 | 84.8 nM | CC(CO)(CO)n1cc(C(=O)c2cncc(NC(=O)c3cccc(C(F)(F)F)c3)c2)c2cncnc21 [Example 264, N-(5-(7-(1,3-dihydroxy-2-methylpropan-2-yl)-7H-pyrrolo[2,3-d]pyrimidine-5-carbonyl)pyridin-3-yl)-3-(trifluoromethyl)benzamide]
30 | 69 nM | CC(CO)(CO)n1cc(C(=O)c2cncc(NC(=O)c3ccc(C(F)(F)F)c(F)c3)c2)c2cncnc21 [Example 265, N-(5-(7-(1,3-dihydroxy-2-methylpropan-2-yl)-7H-pyrrolo[2,3-d]pyrimidine-5-carbonyl)pyridin-3-yl)-3-fluoro-4-(trifluoromethyl)benzamide]
